Columns and labels:
[1] = target: T1, Cholecystokinin receptor type A (Homo sapiens, UniProt P32238)
T1 sequence (P32238 whole entry): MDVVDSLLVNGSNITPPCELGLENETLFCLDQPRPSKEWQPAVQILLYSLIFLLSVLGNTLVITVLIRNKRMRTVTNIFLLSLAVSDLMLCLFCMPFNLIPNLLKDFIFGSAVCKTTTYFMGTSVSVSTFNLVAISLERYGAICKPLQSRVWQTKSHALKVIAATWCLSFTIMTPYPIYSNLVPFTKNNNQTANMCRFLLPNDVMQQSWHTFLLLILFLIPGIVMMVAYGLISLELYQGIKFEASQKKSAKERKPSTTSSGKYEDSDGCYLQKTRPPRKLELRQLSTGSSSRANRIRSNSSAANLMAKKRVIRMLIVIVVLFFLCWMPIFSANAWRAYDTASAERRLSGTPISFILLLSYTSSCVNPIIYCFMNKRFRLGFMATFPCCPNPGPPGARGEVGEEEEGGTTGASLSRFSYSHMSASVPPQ

[2] = target: Neuronal acetylcholine receptor subunit alpha-4 (Homo sapiens, UniProt P43681)
Sequence of Neuronal acetylcholine receptor subunit alpha-4 (P43681 whole entry): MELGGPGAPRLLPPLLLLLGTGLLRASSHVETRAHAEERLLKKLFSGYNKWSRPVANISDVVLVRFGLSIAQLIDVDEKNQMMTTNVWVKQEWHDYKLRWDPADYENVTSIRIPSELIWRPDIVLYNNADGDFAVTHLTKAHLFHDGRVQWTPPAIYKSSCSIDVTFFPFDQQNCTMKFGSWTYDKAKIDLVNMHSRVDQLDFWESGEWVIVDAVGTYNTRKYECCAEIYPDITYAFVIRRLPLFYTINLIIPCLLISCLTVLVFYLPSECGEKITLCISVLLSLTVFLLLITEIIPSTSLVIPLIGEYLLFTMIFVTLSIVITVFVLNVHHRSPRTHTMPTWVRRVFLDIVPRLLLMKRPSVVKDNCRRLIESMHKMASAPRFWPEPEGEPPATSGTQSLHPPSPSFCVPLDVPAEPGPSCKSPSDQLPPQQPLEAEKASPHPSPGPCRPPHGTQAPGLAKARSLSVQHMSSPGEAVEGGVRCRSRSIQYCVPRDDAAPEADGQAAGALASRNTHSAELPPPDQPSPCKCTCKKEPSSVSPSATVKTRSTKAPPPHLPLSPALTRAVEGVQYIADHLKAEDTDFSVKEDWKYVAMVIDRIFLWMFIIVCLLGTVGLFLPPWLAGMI

[3] = target: 5-hydroxytryptamine receptor 2B (Homo sapiens, UniProt P41595); assay type: functional, cell-based
Sequence of 5-hydroxytryptamine receptor 2B (P41595 whole entry): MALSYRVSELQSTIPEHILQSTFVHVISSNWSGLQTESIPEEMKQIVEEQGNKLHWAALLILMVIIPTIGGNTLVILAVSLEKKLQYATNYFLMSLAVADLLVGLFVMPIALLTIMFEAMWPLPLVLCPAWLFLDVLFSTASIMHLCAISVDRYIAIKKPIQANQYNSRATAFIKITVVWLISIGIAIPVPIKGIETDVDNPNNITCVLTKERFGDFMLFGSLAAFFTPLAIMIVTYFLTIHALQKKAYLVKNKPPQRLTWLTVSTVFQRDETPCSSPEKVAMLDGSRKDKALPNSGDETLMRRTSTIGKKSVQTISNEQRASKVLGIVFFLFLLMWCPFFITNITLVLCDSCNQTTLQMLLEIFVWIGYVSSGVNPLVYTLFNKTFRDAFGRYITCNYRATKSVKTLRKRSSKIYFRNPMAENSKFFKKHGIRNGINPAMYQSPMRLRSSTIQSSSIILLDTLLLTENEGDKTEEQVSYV

Progesterone receptor = target: T2, Progesterone receptor (Homo sapiens, UniProt P06401); assay type: functional
T2 sequence (P06401 whole entry): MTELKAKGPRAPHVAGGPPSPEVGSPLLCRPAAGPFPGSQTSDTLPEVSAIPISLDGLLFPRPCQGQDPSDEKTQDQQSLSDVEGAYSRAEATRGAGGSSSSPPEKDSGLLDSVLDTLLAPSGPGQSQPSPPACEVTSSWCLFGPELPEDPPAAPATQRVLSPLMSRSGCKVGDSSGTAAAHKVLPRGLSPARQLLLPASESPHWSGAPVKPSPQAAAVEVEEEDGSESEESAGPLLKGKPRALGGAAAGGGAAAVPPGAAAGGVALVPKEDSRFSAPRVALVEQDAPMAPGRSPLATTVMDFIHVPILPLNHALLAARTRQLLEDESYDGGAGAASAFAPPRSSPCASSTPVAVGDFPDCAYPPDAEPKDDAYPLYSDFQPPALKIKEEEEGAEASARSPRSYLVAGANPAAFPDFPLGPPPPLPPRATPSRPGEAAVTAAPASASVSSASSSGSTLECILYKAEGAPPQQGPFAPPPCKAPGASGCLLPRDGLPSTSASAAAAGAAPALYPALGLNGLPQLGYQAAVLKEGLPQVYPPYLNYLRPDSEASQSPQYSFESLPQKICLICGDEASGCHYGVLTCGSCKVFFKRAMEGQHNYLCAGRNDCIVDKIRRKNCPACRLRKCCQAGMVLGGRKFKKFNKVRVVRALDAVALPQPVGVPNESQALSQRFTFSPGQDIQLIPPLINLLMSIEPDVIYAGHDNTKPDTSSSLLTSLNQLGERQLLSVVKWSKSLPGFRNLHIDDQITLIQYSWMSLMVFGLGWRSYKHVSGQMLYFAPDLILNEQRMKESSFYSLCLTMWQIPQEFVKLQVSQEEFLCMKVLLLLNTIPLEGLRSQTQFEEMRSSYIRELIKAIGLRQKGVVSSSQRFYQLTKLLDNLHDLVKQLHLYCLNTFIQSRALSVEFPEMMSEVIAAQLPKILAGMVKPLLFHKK

[4] = target: T3, Equilibrative nucleoside transporter 1 (Homo sapiens, UniProt Q99808)
T3 sequence (Q99808 whole entry): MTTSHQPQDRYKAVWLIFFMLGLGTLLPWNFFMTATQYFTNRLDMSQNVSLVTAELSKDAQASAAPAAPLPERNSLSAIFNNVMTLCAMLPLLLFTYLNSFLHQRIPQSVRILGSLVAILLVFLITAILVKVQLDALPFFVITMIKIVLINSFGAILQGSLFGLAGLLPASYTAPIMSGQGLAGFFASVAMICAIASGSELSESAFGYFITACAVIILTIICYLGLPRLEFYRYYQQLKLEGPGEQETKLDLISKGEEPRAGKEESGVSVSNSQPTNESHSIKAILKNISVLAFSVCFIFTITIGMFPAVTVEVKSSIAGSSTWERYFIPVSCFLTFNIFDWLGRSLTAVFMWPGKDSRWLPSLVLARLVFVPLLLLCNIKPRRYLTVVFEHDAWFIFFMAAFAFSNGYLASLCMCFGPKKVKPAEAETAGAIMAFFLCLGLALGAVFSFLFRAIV

[5] = target: Sodium-dependent dopamine transporter (Homo sapiens, UniProt Q01959)
Sequence of Sodium-dependent dopamine transporter (Q01959 whole entry): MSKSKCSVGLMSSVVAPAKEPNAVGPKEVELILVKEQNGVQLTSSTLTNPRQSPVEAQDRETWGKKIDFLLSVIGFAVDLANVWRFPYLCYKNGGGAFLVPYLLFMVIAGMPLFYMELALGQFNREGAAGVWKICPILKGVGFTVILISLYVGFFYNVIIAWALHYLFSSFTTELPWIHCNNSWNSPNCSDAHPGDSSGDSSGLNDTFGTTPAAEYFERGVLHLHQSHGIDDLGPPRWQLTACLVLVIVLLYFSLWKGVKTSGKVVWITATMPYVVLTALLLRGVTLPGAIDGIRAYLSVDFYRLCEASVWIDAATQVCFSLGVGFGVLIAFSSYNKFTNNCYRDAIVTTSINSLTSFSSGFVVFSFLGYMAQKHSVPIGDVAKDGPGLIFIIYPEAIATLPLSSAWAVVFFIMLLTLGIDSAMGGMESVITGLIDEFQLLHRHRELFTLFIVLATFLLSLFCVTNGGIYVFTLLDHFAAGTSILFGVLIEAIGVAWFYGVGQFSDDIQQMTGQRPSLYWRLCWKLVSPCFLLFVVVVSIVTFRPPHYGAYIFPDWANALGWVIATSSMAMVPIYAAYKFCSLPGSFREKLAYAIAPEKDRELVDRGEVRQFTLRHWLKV

[6] = target: T4, Amine oxidase [flavin-containing] A (Homo sapiens, UniProt P21397); assay type: functional
T4 sequence (P21397 whole entry): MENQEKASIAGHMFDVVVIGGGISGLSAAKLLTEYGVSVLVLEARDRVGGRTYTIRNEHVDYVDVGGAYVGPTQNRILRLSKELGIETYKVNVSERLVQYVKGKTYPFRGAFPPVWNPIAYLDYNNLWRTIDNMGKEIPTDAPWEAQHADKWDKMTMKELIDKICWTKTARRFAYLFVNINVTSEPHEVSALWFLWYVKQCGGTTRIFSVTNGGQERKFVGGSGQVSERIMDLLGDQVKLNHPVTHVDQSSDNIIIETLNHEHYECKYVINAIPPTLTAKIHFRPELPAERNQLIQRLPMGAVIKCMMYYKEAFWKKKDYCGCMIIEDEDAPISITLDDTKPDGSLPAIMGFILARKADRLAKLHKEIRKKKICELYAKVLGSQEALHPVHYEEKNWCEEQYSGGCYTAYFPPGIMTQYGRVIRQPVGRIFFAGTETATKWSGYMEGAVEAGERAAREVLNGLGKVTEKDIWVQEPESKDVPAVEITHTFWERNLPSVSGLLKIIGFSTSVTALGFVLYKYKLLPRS
Note: assay procedure not described here.

Compound | AC50 [1] | AC50 [2] | AC50 [3] | AC50 (Progesterone receptor) | AC50 [4] | AC50 [5] | AC50 [6]
CC(=N)N1CC[C@H](SC2=C(C(=O)O)N3C(=O)[C@H]([C@@H](C)O)[C@H]3C2)C1 | > 300 µM | 170 µM | > 300 µM | > 300 µM | 60 µM | 270 µM | > 300 µM
CC(/C=C1\SC(=S)N(CC(=O)O)C1=O)=C\c1ccccc1 | > 30 µM | 28 µM | > 30 µM | > 30 µM | 15 µM | 20 µM | > 30 µM
CC1(C)S[C@@H]2[C@H](NC(=O)[C@H](N)c3ccc(O)cc3)C(=O)N2[C@H]1C(=O)O [AMOXICILLIN] | > 30 µM | > 30 µM | > 30 µM | > 30 µM | > 30 µM | > 30 µM | > 30 µM
O=C1CN2Cc3c(ccc(Cl)c3Cl)N=C2N1 [ANAGRELIDE] | > 30 µM | > 10 µM | > 10 µM |  | > 30 µM | > 30 µM | > 10 µM
CNCC[C@@H](Oc1ccccc1C)c1ccccc1 [ATOMOXETINE] | > 30 µM | > 30 µM | > 30 µM | > 30 µM |  |  | > 30 µM
CCc1oc2ccccc2c1C(=O)c1cc(Br)c(O)c(Br)c1 [BENZBROMARONE] | > 30 µM | > 30 µM | > 30 µM | > 30 µM | > 30 µM | 26 µM | > 30 µM
C=C(C)[C@@H]1CCC(C)=C[C@H]1c1c(O)cc(CCCCC)cc1O [CANNABIDIOL] | 18.3 µM | > 30 µM | > 30 µM | > 30 µM | > 30 µM | 28 µM | > 30 µM
CO/N=C(\C(=O)N[C@@H]1C(=O)N2C(C(=O)O)=C(COC(N)=O)CS[C@H]12)c1ccco1 [CEFUROXIME] | > 30 µM | > 30 µM | > 30 µM |  | > 30 µM | > 30 µM | > 30 µM
Clc1cccc(Cl)c1N=C1NCCN1 [CLONIDINE] | > 30 µM | > 10 µM | > 10 µM |  | > 30 µM | > 10 µM | > 10 µM
CN1C[C@H](C(=O)N[C@]2(C)O[C@@]3(O)[C@@H]4CCCN4C(=O)[C@H](Cc4ccccc4)N3C2=O)C[C@@H]2c3cccc4[nH]cc(c34)C[C@H]21 [DIHYDROERGOTAMINE] | > 30 µM | > 10 µM | 2.77 µM |  | > 30 µM | > 30 µM | > 10 µM
CNCC[C@H](Oc1cccc2ccccc12)c1cccs1 [DULOXETINE] | > 30 µM | > 10 µM | > 10 µM |  | > 30 µM |  | > 10 µM
Cc1cnc(NC(=O)C2=C(O)c3ccccc3S(=O)(=O)N2C)s1 [MELOXICAM] | > 30 µM | > 10 µM | > 10 µM |  | > 30 µM | > 10 µM | > 10 µM
CC[C@@H](CO)NC(=O)[C@@H]1C=C2c3cccc4[nH]cc(c34)C[C@H]2N(C)C1 [METHYLERGONOVINE] | > 30 µM | > 30 µM | 0.0257 µM | > 30 µM |  | > 30 µM | > 30 µM
COc1ccnc(C[S+]([O-])c2nc3ccc(OC(F)F)cc3[nH]2)c1OC (centres undefined) [PANTOPRAZOLE] | > 30 µM | > 10 µM | > 10 µM |  | > 30 µM | > 10 µM | > 10 µM
O=C(Nc1c(Cl)cncc1Cl)c1ccc(OC(F)F)c(OCC2CC2)c1 [ROFLUMILAST] | > 30 µM | > 30 µM | > 30 µM | > 30 µM |  | > 30 µM | > 30 µM
CC(=O)S[C@@H]1CC2=CC(=O)CC[C@]2(C)[C@H]2CC[C@@]3(C)[C@@H](CC[C@@]34CCC(=O)O4)[C@H]12 [SPIRONOLACTONE] | > 30 µM | > 30 µM | > 30 µM |  | > 30 µM | > 30 µM | > 30 µM

From ChEMBL document CHEMBL5291721, “A preclinical secondary pharmacology resource illuminates target-adverse drug reaction associations of marketed drugs” (Nat Commun, 2023)
